How the values were obtained:
Assay in all cases: relative viability (nuclei count vs DMSO), 5 days (fraction); higher = more cells survive
Ispinesib + Tozasertib = compound: Cc1ccc(C(=O)N(CCCN)[C@@H](c2nc3cc(Cl)ccc3c(=O)n2Cc2ccccc2)C(C)C)cc1 [Ispinesib] + Cc1cc(Nc2cc(N3CCN(C)CC3)nc(Sc3ccc(NC(=O)C4CC4)cc3)n2)n[nH]1 [Tozasertib] (partner 0.1 µM)
How it was run: (§1)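 Lung cancer cell lines were pin-tool dosed in 1536-well plates on the day after seeding, with either a lone drug or a fixed anchor-drug dose plus five library-drug doses (not always all listed) in √10 steps. Nuclei were counted on 4× images after 5 days. Relative viability is the ratio of treated-well to vehicle-well nuclei counts, with each value a median of duplicate plates.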

Linsitinib + Lapatinib = compound: C[C@]1(O)C[C@@H](c2nc(-c3ccc4ccc(-c5ccccc5)nc4c3)c3c(N)nccn32)C1 [Linsitinib] + CS(=O)(=O)CCNCc1ccc(-c2ccc3ncnc(Nc4ccc(OCc5cccc(F)c5)c(Cl)c4)c3c2)o1 [Lapatinib] (partner 2 µM)
How it was run: as §1

Linsitinib + Olaparib = compound: C[C@]1(O)C[C@@H](c2nc(-c3ccc4ccc(-c5ccccc5)nc4c3)c3c(N)nccn32)C1 [Linsitinib] + O=C(c1cc(Cc2n[nH]c(=O)c3ccccc23)ccc1F)N1CCN(C(=O)C2CC2)CC1 [Olaparib] (partner 8 µM)
How it was run: as §1

Ispinesib + Pictilisib = compound: Cc1ccc(C(=O)N(CCCN)[C@@H](c2nc3cc(Cl)ccc3c(=O)n2Cc2ccccc2)C(C)C)cc1 [Ispinesib] + CS(=O)(=O)N1CCN(Cc2cc3nc(-c4cccc5[nH]ncc45)nc(N4CCOCC4)c3s2)CC1 [Pictilisib] (partner 1 µM)
How it was run: as §1

| Cell Line | relative viability (Ispinesib + Tozasertib; first compound 0.001 µM) | relative viability (Ispinesib + Tozasertib; first compound 0.003162 µM) | relative viability (Ispinesib + Tozasertib; first compound 0.01 µM) | relative viability (Ispinesib + Tozasertib; first compound 0.03162 µM) | relative viability (Ispinesib + Tozasertib; first compound 0.1 µM) | relative viability (Linsitinib + Lapatinib; first compound 0.01 µM) | relative viability (Linsitinib + Lapatinib; first compound 0.03162 µM) | relative viability (Linsitinib + Lapatinib; first compound 0.1 µM) | relative viability (Linsitinib + Lapatinib; first compound 0.3162 µM) | relative viability (Linsitinib + Lapatinib; first compound 1 µM) | relative viability (Linsitinib + Olaparib; first compound 0.01 µM) | relative viability (Linsitinib + Olaparib; first compound 0.03162 µM) | relative viability (Linsitinib + Olaparib; first compound 0.1 µM) | relative viability (Linsitinib + Olaparib; first compound 0.3162 µM) | relative viability (Linsitinib + Olaparib; first compound 1 µM) | relative viability (Ispinesib + Pictilisib; first compound 0.001 µM) | relative viability (Ispinesib + Pictilisib; first compound 0.003162 µM) | relative viability (Ispinesib + Pictilisib; first compound 0.01 µM) | relative viability (Ispinesib + Pictilisib; first compound 0.03162 µM) | relative viability (Ispinesib + Pictilisib; first compound 0.1 µM) |
| --- | --- | --- | --- | --- | --- | --- | --- | --- | --- | --- | --- | --- | --- | --- | --- | --- | --- | --- | --- | --- |
| NCI-H2085 | 0.881 | 0.855 | 1 | 0.76 | 0.651 | 0.701 | 0.822 | 0.822 | 0.753 | 0.658 | 0.743 | 0.795 | 0.901 | 0.713 | 0.805 | 0.485 | 0.406 | 0.504 | 0.43 | 0.307 |
| NCI-H650 | 0.738 | 0.712 | 0.77 | 0.742 | 0.426 | 0.701 | 0.926 | 0.871 | – | 0.646 | 0.381 | 0.537 | 0.405 | – | 0.398 | 0.861 | 0.99 | 0.868 | 0.827 | 0.402 |
| NCI-H727 | 0.598 | 0.556 | 0.647 | 0.621 | 0.668 | 0.716 | 0.724 | 0.863 | 0.428 | 0.377 | 0.694 | 0.773 | 0.747 | 0.449 | 0.601 | – | 0.461 | 0.313 | 0.232 | 0.239 |
| NCI-H1993 | 0.54 | 0.509 | 0.574 | 0.519 | 0.588 | 0.784 | 0.793 | 0.76 | 0.498 | 0.684 | 1.09 | 0.692 | 0.879 | 0.698 | 0.982 | 0.808 | 0.828 | 0.806 | 0.7 | 0.611 |
| EMC-BAC-2 | 0.28 | 0.189 | 0.289 | 0.292 | 0.261 | 0.914 | 0.893 | 0.806 | 0.686 | 0.694 | 0.478 | 0.601 | 0.47 | 0.348 | 0.37 | 0.553 | 0.568 | 0.539 | 0.413 | 0.239 |
| NCI-H2087 | 0.301 | 0.246 | 0.29 | 0.261 | 0.155 | 0.886 | 1.26 | 1.13 | 0.349 | 0.626 | 0.572 | 0.639 | 0.609 | 0.51 | 0.47 | 0.94 | 0.881 | 1.13 | 0.313 | 0.187 |
| LXF-289 | 0.235 | 0.171 | 0.175 | 0.151 | 0.152 | 0.924 | 0.911 | 0.901 | 0.643 | 0.886 | 1.11 | 1.13 | 1.17 | 0.797 | 1.05 | 0.846 | 0.812 | 0.909 | 0.709 | 0.123 |
| NCI-H661 | 0.355 | 0.396 | 0.384 | 0.379 | 0.369 | 0.566 | 0.501 | 0.514 | 0.691 | 0.424 | 0.665 | 0.666 | 0.751 | 0.749 | 0.744 | 0.387 | 0.471 | 0.41 | 0.31 | 0.332 |
| PC-3 [JPC-3] | 0.899 | 0.902 | 0.961 | 1.01 | 0.59 | 0.43 | 0.455 | 0.405 | 0.369 | 0.373 | 1.16 | 1.1 | 1.2 | 1.04 | 1.02 | 0.751 | 0.812 | 0.876 | 0.628 | 0.53 |
| HCC-366 | 0.172 | 0.13 | 0.663 | 0.0791 | 0.0441 | 1.14 | 0.8 | 1.07 | 0.326 | 0.874 | 0.354 | 0.219 | 0.481 | 0.332 | 0.265 | 0.082 | 0.161 | 0.143 | 0.0978 | 0.0851 |
| NCI-H1651 | 0.692 | 0.776 | 0.968 | 0.824 | 0.234 | 0.761 | 0.772 | 0.78 | 0.667 | 0.566 | 0.18 | 0.169 | 0.191 | 0.171 | 0.178 | 0.623 | 0.66 | 0.8 | 0.491 | 0.18 |
| NCI-H1355 | 0.566 | 0.608 | 0.548 | 0.503 | 0.486 | 1.04 | 0.983 | 0.865 | 0.547 | 0.546 | 0.741 | 0.742 | 0.628 | 0.483 | 0.353 | 0.418 | 0.434 | 0.489 | 0.252 | 0.198 |
| LC-2-ad | 0.42 | 0.52 | 0.384 | 0.322 | 0.241 | 0.934 | 0.691 | 0.941 | 0.332 | 0.766 | 0.621 | 0.751 | 0.73 | 0.625 | 0.685 | 0.507 | 0.509 | 0.438 | 0.0946 | 0.133 |
| NCI-H1944 | 0.263 | 0.249 | 0.275 | 0.225 | 0.234 | 0.787 | 0.833 | 0.872 | 0.527 | 0.46 | 0.437 | 0.521 | 0.4 | 0.333 | 0.382 | 0.402 | 0.398 | 0.341 | 0.288 | 0.219 |
| HCC-827 | 0.43 | 0.534 | 0.43 | 0.446 | 0.372 | 0.208 | 0.197 | 0.17 | – | 0.224 | 0.759 | 0.377 | 0.606 | – | 0.625 | 0.979 | 0.964 | 1.05 | 0.8 | 0.734 |
| COR-L23 | 0.26 | 0.231 | 0.204 | 0.178 | 0.152 | 0.798 | 0.916 | 1.16 | 0.825 | 0.944 | 0.375 | 0.292 | 0.346 | 0.299 | 0.29 | 0.895 | 0.863 | 0.908 | 0.181 | 0.235 |
